This assay deals with T1, WT LRRK2 (Homo sapiens, UniProt Q5S007).
T1 construct: endogenous in cells; host or cells: HEK293 (endogenous LRRK2 gene knock-in tagged with HiBit; stably expressing CMV-driven firefly luciferase)
The assay is described as follows: LRRK2 HiBit degradation assay (Nano-Glo Dual Luciferase) in HEK293 cells with HiBit-tagged endogenous LRRK2. The class given is cell-based. The method in brief: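 HEK293 cells carrying endogenous C-terminally HiBit-tagged LRRK2 and stably expressing CMV-driven firefly luciferase were treated for 24 h at 37° C with an 11-point 1:3 series from a 1 μM final top concentration. Nano-Glo Dual Luciferase read LRRK2-HiBit against firefly signal. Alamar Blue gave viability, and signals were normalized to DMSO median before curve fitting.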

[1] abbreviates: HEK293, Table 2, maximal degradation, HiBit-tagged LRRK2 in HEK293 cells, 24 hours treatment.
Setting [2] is: Table 2, HiBit-tagged LRRK2 in HEK293 cells, 24 hours treatment, starting concentration 1 μM.
Setting [3] is: HEK293, Table 3, comparison with direct comparators, maximal degradation.
Setting [4] is: Table 3, comparison with direct comparators, HiBit-tagged LRRK2 in HEK293 cells, 24 hours treatment.

From patent publication US12589156B2, “Benzimidazole and benzimidazolone based protac compounds for the targeted degradation of leucine rich repeat kinase 2 (LRRK2)” (Arvinas Operations, Inc., priority 2023, dated 2026) come the findings set out here.

Broadly, the Dmax is the largest share of the target that was removed. A higher Dmax goes with deep degradation. As a reminder, the DC50 is the concentration at which degradation of the target reaches its halfway point. The low end stands for degradation at low concentration, the high end for degradation only at high concentration.

Some results are limits rather than exact numbers.

T1 sequence (Q5S007 whole entry): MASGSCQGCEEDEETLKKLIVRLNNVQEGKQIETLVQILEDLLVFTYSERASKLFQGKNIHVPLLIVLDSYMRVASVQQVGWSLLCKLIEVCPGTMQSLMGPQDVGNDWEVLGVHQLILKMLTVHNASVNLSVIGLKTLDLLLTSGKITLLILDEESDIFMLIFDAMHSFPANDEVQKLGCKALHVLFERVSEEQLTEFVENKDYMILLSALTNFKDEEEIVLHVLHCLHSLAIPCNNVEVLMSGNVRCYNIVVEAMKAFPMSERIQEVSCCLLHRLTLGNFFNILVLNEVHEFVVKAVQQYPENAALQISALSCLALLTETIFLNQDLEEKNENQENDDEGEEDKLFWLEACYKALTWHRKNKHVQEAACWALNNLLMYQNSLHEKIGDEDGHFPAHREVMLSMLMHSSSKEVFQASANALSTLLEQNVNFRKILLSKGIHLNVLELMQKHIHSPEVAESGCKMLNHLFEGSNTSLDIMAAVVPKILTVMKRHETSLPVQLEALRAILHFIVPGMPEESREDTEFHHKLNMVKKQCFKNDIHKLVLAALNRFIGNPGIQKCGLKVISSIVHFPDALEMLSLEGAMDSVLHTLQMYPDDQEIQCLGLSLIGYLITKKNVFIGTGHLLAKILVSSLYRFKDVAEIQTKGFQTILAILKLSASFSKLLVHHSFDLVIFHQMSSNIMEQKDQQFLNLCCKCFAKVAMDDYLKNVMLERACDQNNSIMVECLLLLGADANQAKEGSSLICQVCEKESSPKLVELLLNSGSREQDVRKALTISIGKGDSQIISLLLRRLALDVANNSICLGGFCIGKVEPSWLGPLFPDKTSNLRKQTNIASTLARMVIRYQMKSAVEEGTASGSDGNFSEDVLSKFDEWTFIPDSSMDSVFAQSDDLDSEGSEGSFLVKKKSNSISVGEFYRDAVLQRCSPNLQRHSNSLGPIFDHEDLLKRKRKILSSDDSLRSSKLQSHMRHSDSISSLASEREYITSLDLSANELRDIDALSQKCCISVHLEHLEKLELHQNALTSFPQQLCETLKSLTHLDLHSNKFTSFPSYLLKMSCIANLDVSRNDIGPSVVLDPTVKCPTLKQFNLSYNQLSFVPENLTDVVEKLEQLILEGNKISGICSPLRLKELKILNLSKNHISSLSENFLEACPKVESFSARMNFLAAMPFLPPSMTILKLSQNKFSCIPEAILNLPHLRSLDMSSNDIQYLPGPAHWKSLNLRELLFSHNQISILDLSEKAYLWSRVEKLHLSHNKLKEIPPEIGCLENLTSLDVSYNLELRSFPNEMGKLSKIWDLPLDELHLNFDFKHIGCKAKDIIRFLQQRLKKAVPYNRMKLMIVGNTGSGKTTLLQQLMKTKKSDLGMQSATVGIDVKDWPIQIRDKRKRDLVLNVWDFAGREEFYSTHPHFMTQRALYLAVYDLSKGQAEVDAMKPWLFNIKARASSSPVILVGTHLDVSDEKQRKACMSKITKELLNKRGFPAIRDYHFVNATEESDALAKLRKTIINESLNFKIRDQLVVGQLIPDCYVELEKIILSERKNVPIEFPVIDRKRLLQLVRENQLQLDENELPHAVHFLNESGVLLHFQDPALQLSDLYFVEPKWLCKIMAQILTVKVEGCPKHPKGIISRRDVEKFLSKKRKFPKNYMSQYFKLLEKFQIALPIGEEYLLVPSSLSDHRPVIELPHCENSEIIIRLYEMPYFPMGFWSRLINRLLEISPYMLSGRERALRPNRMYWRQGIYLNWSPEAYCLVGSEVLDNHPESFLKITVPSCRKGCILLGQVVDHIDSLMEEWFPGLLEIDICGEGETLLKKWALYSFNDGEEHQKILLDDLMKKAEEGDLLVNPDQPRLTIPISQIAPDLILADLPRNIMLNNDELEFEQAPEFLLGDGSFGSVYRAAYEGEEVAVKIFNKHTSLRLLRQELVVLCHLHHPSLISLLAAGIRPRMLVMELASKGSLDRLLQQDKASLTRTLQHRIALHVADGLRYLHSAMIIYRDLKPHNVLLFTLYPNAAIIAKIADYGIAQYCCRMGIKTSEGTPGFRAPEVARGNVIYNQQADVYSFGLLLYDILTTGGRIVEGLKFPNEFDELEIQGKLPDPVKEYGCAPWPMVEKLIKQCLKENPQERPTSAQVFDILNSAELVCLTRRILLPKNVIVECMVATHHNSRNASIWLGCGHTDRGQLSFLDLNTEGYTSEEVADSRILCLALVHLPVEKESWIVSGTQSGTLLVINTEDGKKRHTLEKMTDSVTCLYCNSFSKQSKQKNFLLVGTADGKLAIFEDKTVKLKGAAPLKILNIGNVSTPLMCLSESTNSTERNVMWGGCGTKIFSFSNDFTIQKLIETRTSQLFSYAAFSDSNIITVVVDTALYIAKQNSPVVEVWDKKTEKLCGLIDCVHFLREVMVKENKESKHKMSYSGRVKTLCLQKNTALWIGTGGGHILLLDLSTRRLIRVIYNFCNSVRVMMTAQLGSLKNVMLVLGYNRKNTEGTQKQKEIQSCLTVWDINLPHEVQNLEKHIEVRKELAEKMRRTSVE

With `Cn1c(=O)n(C2CCC(=O)NC2=O)c2ccc(N3CCC(O[C@H]4CC[C@H](CN5CCN(c6cc(-c7n[nH]c8ccc(C9(C#N)CC%10(CC%10)C9)cc78)ncn6)CC5)CC4)CC3)cc21` (single isomer, unassigned) [Compound 64, rel-5-{3-[6-(4-{[(1r,4r)-4-({1-[1-(2,6-dioxopiperidin-3-yl)-3-methyl-2-oxo-2,3-dihydro-1H-1,3-benzodiazol-5-yl]piperidin-4-yl}oxy)cyclohexyl]methyl}piperazin-1-yl)pyrimidin-4-yl]-1H-indazol-5-yl}spiro[2.3]hexane-5-carbonitrile], under setting [1], the Dmax was determined as 63%. Further, the DC50 under setting [2] came out at 0.16 nM.

Molecule `Cn1c(=O)n(C2CCC(=O)NC2=O)c2ccc(N3CCC(O[C@H]4CC[C@H](CN5CCN(c6cc(-c7n[nH]c8ccc([C@@]9(C#N)CC9%10CC%10)cc78)ncn6)CC5)CC4)CC3)cc21` (single isomer, unassigned) [Compound 65, (1R**)-1-{3-[6-(4-{[(1r*,4r*)-4-({1-[1-(2,6-dioxopiperidin-3-yl)-3-methyl-2-oxo-2,3-dihydro-1H-1,3-benzodiazol-5-yl]piperidin-4-yl}oxy)cyclohexyl]methyl}piperazin-1-yl)pyrimidin-4-yl]-1H-indazol-5-yl}spiro[2.2]pentane-1-carbonitrile] displayed a Dmax under setting [1] of 64%. The same molecule returned a DC50 under setting [2] of 0.13 nM.

On to `Cn1c(=O)n(C2CCC(=O)NC2=O)c2ccc(N3CCC(O[C@H]4CC[C@H](CN5CCN(c6cc(-c7n[nH]c8ccc([C@]9(C#N)CC9%10CC%10)cc78)ncn6)CC5)CC4)CC3)cc21` (single isomer, unassigned) [Compound 66, (1R**)-1-{3-[6-(4-{[(1r*,4r*)-4-({1-[1-(2,6-dioxopiperidin-3-yl)-3-methyl-2-oxo-2,3-dihydro-1H-1,3-benzodiazol-5-yl]piperidin-4-yl}oxy)cyclohexyl]methyl}piperazin-1-yl)pyrimidin-4-yl]-1H-indazol-5-yl}spiro[2.2]pentane-1-carbonitrile], for which the Dmax under setting [1] worked out at 61%. In addition, half-maximal degradation under setting [2] (DC50) was put at 0.14 nM.

As to `Cn1c(=O)n(C2CCC(=O)NC2=O)c2cc(Br)c(N3CCC(O[C@H]4CC[C@H](CN5CCN(c6cc(-c7n[nH]c8cnc(OC9(C)CC9)cc78)ncn6)CC5)CC4)CC3)cc21` (single isomer, unassigned) [Compound 67, rel-3-[6-bromo-3-methyl-2-oxo-5-(4-{[(1r,4r)-4-[(4-{6-[5-(1-methylcyclopropoxy)-1H-pyrazolo[3,4-c]pyridin-3-yl]pyrimidin-4-yl}piperazin-1-yl)methyl]cyclohexyl]oxy}piperidin-1-yl)-2,3-dihydro-1H-1,3-benzodiazol-1-yl]piperidine-2,6-dione], under setting [1], the Dmax turned out to be 90%. In addition, the DC50 under setting [2] is 5.9 nM.

With `COc1c(N2CCC(O[C@H]3CC[C@H](CN4CCN(c5cc(-c6n[nH]c7cnc(OC8(C)CC8)cc67)ncn5)CC4)CC3)CC2)ccc2c1CN(C1CCC(=O)NC1=O)C2=O` (some centres unmarked) [Comparative Example 1, reference compound], the Dmax under setting [3] is 52%. Also, under setting [4], it took 5.6 nM to reach half-maximal degradation (DC50).

In turn, `COc1c(N2CCC(O[C@H]3CC[C@H](CN4CCN(c5cc(-c6[nH]nc7ccc(OC8(C)CC8)cc67)ncn5)CC4)CC3)CC2)ccc2c1CN(C1CCC(=O)NC1=O)C2=O` (some centres unmarked) [Comparative Example 2, reference compound] displayed a Dmax under setting [3] of 62%. Besides, under setting [4], it took 3 nM to reach half-maximal degradation (DC50).

`CC1(Oc2cc3c(-c4cc(N5CCN(C[C@H]6CC[C@H](OC7CCN(c8ccc9c(c8F)CN(C8CCC(=O)NC8=O)C9=O)CC7)CC6)CC5)ncn4)n[nH]c3cn2)CC1` (some centres unmarked) [Comparative Example 3, reference compound] came in with a Dmax under setting [3] of 65%. The DC50 under setting [4] was 4.3 nM.

Regarding `COc1c(N2CCC(CN3CCN(CC4CCN(c5cc(-c6n[nH]c7ccc(OC8(C)CC8)cc67)ncn5)CC4)CC3)CC2)ccc2c1CN(C1CCC(=O)NC1=O)C2=O` (centres unmarked) [Comparative Example 4, reference compound], the Dmax under setting [3] came to 80%. Besides, the DC50 under setting [4] came out at 0.79 nM.

Consider `COc1c(N2CCC(CN3CCN(CC4CCN(c5cc(-c6n[nH]c7ccc(OC8(C)CC8)cc67)ncn5)CC4)C(C)(C)C3)CC2)ccc2c1CN(C1CCC(=O)NC1=O)C2=O` (centres unmarked) [Comparative Example 5, reference compound], for which, under setting [3], the Dmax worked out at 65%. For the same molecule, the DC50 under setting [4] is 1.6 nM.

The molecule `COc1c(N2CCC(CN3CCN(CC4CCN(c5cc(-c6n[nH]c7cnc(OC8(C)CC8)cc67)ncn5)CC4)C(C)(C)C3)CC2)ccc2c1CN(C1CCC(=O)NC1=O)C2=O` (centres unmarked) [Comparative Example 6, reference compound] came in with a Dmax under setting [3] of 68%. This molecule also had a DC50 under setting [4] of 1.7 nM.

`Cn1c(=O)n(C2CCC(=O)NC2=O)c2ccc(N3CCC(O[C@H]4CC[C@H](CN5CCN(c6cc(-c7n[nH]c8cnc(OC9(C)CC9)cc78)ncn6)CC5)CC4)CC3)cc21` (some centres unmarked) [Compound 1, 3-[3-methyl-2-oxo-5-(4-{[(1r,4r)-4-[(4-{6-[5-(1-methylcyclopropoxy)-1H-pyrazolo[3,4-c]pyridin-3-yl]pyrimidin-4-yl}piperazin-1-yl)methyl]cyclohexyl]oxy}piperidin-1-yl)-2,3-dihydro-1H-1,3-benzodiazol-1-yl]piperidine-2,6-dione] gave a Dmax under setting [1] of 53% and a Dmax under setting [3] of 53%. Besides, the DC50 by setting is: under setting [2], 0.14 nM; under setting [4], 0.14 nM. Also, the “increase in WT LRRK2 DC50 activity when compared to Comparator Example” value (versus comparator bearing a 3-(4-methoxy-1-oxoisoindolin-2-yl)piperidine-2,6-dione group) is listed as over 40 fold.

Take `CC(C)n1c(=O)n(C2CCC(=O)NC2=O)c2ccc(N3CCC(CN4CCN(CC5CCN(c6cc(-c7n[nH]c8ccc(OC9(C)CC9)cc78)ncn6)CC5)C(C)(C)C4)CC3)cc21` (centres unmarked) [Compound 2, 3-{5-[4-({3,3-dimethyl-4-[(1-{6-[5-(1-methylcyclopropoxy)-1H-indazol-3-yl]pyrimidin-4-yl}piperidin-4-yl)methyl]piperazin-1-yl}methyl)piperidin-1-yl]-2-oxo-3-(propan-2-yl)-2,3-dihydro-1H-1,3-benzodiazol-1-yl}piperidine-2,6-dione]: under setting [1], the Dmax amounted to 55%. Moreover, under setting [2], it took 0.18 nM to reach half-maximal degradation (DC50).

With `CC1(Oc2ccc3[nH]nc(-c4cc(N5CCN(C[C@H]6CC[C@H](OC7CCN(c8cccc9c8ncn9C8CCC(=O)NC8=O)CC7)CC6)CC5)ncn4)c3c2)CC1` (some centres unmarked) [Compound 3, 3-[4-(4-{[(1r,4r)-4-[(4-{6-[5-(1-methylcyclopropoxy)-1H-indazol-3-yl]pyrimidin-4-yl}piperazin-1-yl)methyl]cyclohexyl]oxy}piperidin-1-yl)-1H-1,3-benzodiazol-1-yl]piperidine-2,6-dione], the Dmax by setting is: under setting [1], 30%; under setting [3], 30%. This molecule also registered a DC50 under setting [2] of 28 nM and a DC50 under setting [4] of 28 nM.

The molecule `CC1(Oc2ccc3[nH]nc(-c4cc(N5CCN(CC6CCC(OC7CCN(c8ccc9ncn(C%10CCC(=O)NC%10=O)c9c8)CC7)CC6)CC5)ncn4)c3c2)CC1` (centres unmarked) [Compound 4, 3-[6-(4-{[(1r,4r)-4-[(4-{6-[5-(1-methylcyclopropoxy)-1H-indazol-3-yl]pyrimidin-4-yl}piperazin-1-yl)methyl]cyclohexyl]oxy}piperidin-1-yl)-1H-1,3-benzodiazol-1-yl]piperidine-2,6-dione] showed a DC50 under setting [2] of 7.5 nM. Where the note is “Table 2, maximal degradation, HiBit-tagged LRRK2 in HEK293 cells, 24 hours treatment”, the “WT LRRK2 **Dmax (%)” value was 62%.

In the case of `Cn1c(=O)n(C2CCC(=O)NC2=O)c2cc(N3CCC(OC4CCC(CN5CCN(c6cc(-c7n[nH]c8ccc(OC9(C)CC9)cc78)ncn6)CC5)CC4)CC3)ccc21` (centres unmarked) [Compound 5, 3-[3-methyl-2-oxo-6-(4-{[(1r,4r)-4-[(4-{6-[5-(1-methylcyclopropoxy)-1H-indazol-3-yl]pyrimidin-4-yl}piperazin-1-yl)methyl]cyclohexyl]oxy}piperidin-1-yl)-2,3-dihydro-1H-1,3-benzodiazol-1-yl]piperidine-2,6-dione], the DC50 under setting [2] is at least 1000 nM.

`Cn1c(=O)n(C2CCC(=O)NC2=O)c2ccc(N3CCC(O[C@H]4CC[C@H](CN5CCN(c6cc(-c7n[nH]c8ccc(OC9(C)CC9)cc78)ncn6)CC5)CC4)CC3)cc21` (some centres unmarked) [Compound 6, 3-[3-methyl-2-oxo-5-(4-{[(1r,4r)-4-[(4-{6-[5-(1-methylcyclopropoxy)-1H-indazol-3-yl]pyrimidin-4-yl}piperazin-1-yl)methyl]cyclohexyl]oxy}piperidin-1-yl)-2,3-dihydro-1H-1,3-benzodiazol-1-yl]piperidine-2,6-dione]: the Dmax under setting [1] is 58% and the Dmax under setting [3] stood at 58%. The half-maximal degradation concentration (DC50) is, setting by setting: under setting [2], 0.17 nM; under setting [4], 0.17 nM.

Under setting [1], `CC1(Oc2ccc3[nH]nc(-c4cc(N5CCC(CN6CCN(CC7CCN(c8ccc9ncn(C%10CCC(=O)NC%10=O)c9c8)CC7)CC6)CC5)ncn4)c3c2)CC1` (centres unmarked) [Compound 7, 3-{6-[4-({4-[(1-{6-[5-(1-methylcyclopropoxy)-1H-indazol-3-yl]pyrimidin-4-yl}piperidin-4-yl)methyl]piperazin-1-yl}methyl)piperidin-1-yl]-1H-1,3-benzodiazol-1-yl}piperidine-2,6-dione] gave a Dmax of 64%. Under setting [2], this molecule displayed a DC50 of 6.4 nM.

As to `Cn1c(=O)n(C2CCC(=O)NC2=O)c2cccc(N3CCC(CN4CCN(CC5CCN(c6cc(-c7n[nH]c8ccc(OC9(C)CC9)cc78)ncn6)CC5)C(C)(C)C4)CC3)c21` (centres unmarked) [Compound 8, 3-{4-[4-({3,3-dimethyl-4-[(1-{6-[5-(1-methylcyclopropoxy)-1H-indazol-3-yl]pyrimidin-4-yl}piperidin-4-yl)methyl]piperazin-1-yl}methyl)piperidin-1-yl]-3-methyl-2-oxo-2,3-dihydro-1H-1,3-benzodiazol-1-yl}piperidine-2,6-dione], the Dmax was determined as 65% under setting [1] and 65% under setting [3]. Besides, the DC50 under setting [2] was 1.2 nM and the DC50 under setting [4] stood at 1.2 nM.
